Data published in patent US20250263753A1, “BRIDGED CYCLE-BASED INHIBITORS OF DNA-DEPENDENT PROTEIN KINASE AND COMPOSITIONS AND APPLICATION IN GENE EDITING” (Juno Therapeutics, Inc., priority 2023, published 2025).
Read-outs that look alike come from different tables or passages of the source.

Experiments:
ATM = ATM (Homo sapiens (Human), UniProt Q13315); assay: ATM biochemical assay (Reaction Biology HTRF kinase assay, 10 μM ATP)
How it was run: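 HTRF kinase assay with N-terminal GST-tagged human p53 (aa2-393) substrate, 10 μM ATP, in 50 mM Hepes pH 7.5, 10 mM MnCl2, 1% DMSO. Enzyme preincubated with compound 30 min, reaction 2 h at room temperature. pS15 phosphorylation read by Eu-cryptate anti-p53-pS15/anti-GST-d2 HTRF (615/665 nm).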

PI3Kβ = PI3Kβ (Homo sapiens (Human), UniProt P42338); assay: PI3Kβ biochemical assay (Reaction Biology ADP-Glo)
Sequence of PI3Kβ (P42338 whole entry): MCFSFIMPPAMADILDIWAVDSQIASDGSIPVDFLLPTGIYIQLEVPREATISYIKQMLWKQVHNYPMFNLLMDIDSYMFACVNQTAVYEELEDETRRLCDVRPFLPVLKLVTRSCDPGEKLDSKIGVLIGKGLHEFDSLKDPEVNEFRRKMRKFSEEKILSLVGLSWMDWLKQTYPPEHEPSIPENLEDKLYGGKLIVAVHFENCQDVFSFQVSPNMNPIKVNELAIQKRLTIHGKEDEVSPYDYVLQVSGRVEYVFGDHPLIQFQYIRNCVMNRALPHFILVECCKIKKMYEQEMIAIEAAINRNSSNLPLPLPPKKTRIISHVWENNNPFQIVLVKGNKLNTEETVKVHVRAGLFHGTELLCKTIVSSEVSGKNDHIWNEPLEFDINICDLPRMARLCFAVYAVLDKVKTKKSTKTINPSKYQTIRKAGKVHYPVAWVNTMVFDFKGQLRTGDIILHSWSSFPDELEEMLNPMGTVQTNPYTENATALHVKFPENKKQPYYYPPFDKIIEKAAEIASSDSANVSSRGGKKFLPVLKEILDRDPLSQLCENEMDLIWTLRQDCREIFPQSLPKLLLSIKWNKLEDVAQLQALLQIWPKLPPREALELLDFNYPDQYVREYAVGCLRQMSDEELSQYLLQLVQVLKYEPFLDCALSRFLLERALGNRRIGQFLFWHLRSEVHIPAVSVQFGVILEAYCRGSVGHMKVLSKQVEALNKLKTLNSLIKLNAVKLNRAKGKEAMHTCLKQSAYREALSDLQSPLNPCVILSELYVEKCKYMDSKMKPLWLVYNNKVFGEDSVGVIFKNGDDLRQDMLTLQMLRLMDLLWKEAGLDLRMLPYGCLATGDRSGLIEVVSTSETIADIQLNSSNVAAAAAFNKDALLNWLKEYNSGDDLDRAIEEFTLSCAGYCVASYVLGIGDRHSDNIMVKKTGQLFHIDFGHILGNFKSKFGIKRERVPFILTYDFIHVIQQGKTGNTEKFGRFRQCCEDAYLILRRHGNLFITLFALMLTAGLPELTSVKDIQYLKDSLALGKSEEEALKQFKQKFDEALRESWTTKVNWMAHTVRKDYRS
Sequence of PI3Kβ (P27986 whole entry partner): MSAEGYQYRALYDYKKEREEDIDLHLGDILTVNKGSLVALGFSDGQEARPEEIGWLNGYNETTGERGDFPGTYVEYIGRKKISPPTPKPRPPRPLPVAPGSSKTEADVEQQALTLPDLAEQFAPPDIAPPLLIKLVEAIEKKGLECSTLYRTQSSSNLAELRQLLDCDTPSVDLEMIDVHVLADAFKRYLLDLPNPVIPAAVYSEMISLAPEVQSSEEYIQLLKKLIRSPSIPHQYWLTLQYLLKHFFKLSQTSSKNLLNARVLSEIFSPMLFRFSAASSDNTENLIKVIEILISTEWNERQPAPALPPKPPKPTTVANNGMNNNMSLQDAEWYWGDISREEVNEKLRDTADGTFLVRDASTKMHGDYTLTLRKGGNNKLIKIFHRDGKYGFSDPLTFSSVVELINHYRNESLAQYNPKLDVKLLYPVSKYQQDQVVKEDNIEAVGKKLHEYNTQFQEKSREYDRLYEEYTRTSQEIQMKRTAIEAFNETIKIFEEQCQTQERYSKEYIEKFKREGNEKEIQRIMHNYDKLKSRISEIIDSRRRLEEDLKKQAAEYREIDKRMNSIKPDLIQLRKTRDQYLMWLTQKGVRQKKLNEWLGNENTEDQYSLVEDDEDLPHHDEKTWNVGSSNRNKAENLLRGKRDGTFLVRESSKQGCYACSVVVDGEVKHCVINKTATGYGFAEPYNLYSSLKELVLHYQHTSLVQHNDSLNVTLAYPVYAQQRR
Description: Phosphoinositide 3-kinase R (PI3KP) Biochemical Assay using Reaction Biology's ADP-Glo Assay Platform:
Step 1: Lipid kinases: Reaction Biology Corporation (RBC) currently offers lipid kinases in ADP-Glo format
Step 2: Assay Description Assay principle: The kinase reactions utilize ATP and produce ADP as a byproduct. The ADP production is quantified by ADP-Glo luminescence detection. This is a 3-step reaction: First, the kinase reaction with lipid substrate is carried out in the presence of ATP, and the reaction is quenched and depleted remaining ATP with ADP-Glo™ reagent, and then finally ADP is converted to ATP which is measured using a luciferase/luciferin reaction.
Step 3: Assay Procedure: 1. Prepare kinase in freshly prepared Reaction Buffer, kinase without substrate is delivered to background wells; 2. Deliver substrate into the kinase solution and gently mix, deliver to assay wells; 3. Deliver compounds in 100% DMSO into the kinase reaction mixture by Acoustic technology (Echo550; nanoliter range), incubate for 20 min at room temperature; 4. Deliver ATP into the reaction mixture to initiate the reaction; 5. Incubate for 60 min at 30° C.; 6. Quench the reaction with ADP-Glo reagent and incubate for 40 min; 7. Add Detection Mixture and incubate for 30 min; 8. Measure luminescence.
Step 4: Data Analysis: The luminescence is converted into M ADP production based on ADP standard curves. The nonlinear regression to obtain the standard curve and IC50 values are performed using Graphpad Prism software.

[1] = target: PI3Kδ (His-PIK3CD/PIK3R1, p110 delta/p85 alpha) (Homo sapiens (Human), UniProt O00329); assay: PI3Kδ biochemical assay (HTRF/FRET probe); type: binding
Description: Phosphoinositide 3-kinase (PI3K) Biochemical Assay: A solution was prepared containing 0.2 nM Anti-HIS-Terbium (Cisbio, 64CUSTAZU), 40 nM designed-probe and 1.0 nM His-PIK3CD/PIK3R1 (p110 delta/p85 alpha) in FRET Buffer (20 mM HEPES, 10 mM MgCl2, 0.015% Brij-35, 4 mM DTT, 0.05 mg/mL BSA).

DNA-PK = DNA-PK (Homo sapiens (Human), UniProt P78527); assay: DNA-PK biochemical assay (Reaction Biology HotSpot kinase assay, 10 μM ATP)
How it was run: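 Radiometric 33P-ATP kinase reaction in 20 mM Hepes pH 7.5, 10 mM MgCl2, 1 mM EGTA, 2 mM DTT, 1% DMSO. Compound preincubated with kinase and substrate 20 min at room temperature, then reaction run 2 h at room temperature after ATP addition. Activity read by P81 filter binding.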

[2] = target: PI3Kα (His-PIK3CA/PIK3R1, p110 alpha/p85 alpha) (Homo sapiens (Human), UniProt P42336); assay: PI3Kα biochemical assay (HTRF/FRET probe); type: binding
Description: Phosphoinositide 3-kinase α (PI3Kα) Biochemical Assay: A solution was prepared containing 0.2 nM Anti-HIS-Terbium (Cisbio, 64CUSTAZU), 3.7 nM designed-probe and 1.0 nM His-PIK3CA/PIK3R1 (p110 alpha/p85 alpha) in FRET Buffer (20 mM HEPES, 10 mM MgCl2, 0.015% Brij-35, 4 mM DTT, 0.05 mg/mL BSA).

[3] = read-out: DNA-PK HotSpot 10 μM ATP IC50, class symbol

Sequence of ATM (Q13315 whole entry, the tested form may be a part): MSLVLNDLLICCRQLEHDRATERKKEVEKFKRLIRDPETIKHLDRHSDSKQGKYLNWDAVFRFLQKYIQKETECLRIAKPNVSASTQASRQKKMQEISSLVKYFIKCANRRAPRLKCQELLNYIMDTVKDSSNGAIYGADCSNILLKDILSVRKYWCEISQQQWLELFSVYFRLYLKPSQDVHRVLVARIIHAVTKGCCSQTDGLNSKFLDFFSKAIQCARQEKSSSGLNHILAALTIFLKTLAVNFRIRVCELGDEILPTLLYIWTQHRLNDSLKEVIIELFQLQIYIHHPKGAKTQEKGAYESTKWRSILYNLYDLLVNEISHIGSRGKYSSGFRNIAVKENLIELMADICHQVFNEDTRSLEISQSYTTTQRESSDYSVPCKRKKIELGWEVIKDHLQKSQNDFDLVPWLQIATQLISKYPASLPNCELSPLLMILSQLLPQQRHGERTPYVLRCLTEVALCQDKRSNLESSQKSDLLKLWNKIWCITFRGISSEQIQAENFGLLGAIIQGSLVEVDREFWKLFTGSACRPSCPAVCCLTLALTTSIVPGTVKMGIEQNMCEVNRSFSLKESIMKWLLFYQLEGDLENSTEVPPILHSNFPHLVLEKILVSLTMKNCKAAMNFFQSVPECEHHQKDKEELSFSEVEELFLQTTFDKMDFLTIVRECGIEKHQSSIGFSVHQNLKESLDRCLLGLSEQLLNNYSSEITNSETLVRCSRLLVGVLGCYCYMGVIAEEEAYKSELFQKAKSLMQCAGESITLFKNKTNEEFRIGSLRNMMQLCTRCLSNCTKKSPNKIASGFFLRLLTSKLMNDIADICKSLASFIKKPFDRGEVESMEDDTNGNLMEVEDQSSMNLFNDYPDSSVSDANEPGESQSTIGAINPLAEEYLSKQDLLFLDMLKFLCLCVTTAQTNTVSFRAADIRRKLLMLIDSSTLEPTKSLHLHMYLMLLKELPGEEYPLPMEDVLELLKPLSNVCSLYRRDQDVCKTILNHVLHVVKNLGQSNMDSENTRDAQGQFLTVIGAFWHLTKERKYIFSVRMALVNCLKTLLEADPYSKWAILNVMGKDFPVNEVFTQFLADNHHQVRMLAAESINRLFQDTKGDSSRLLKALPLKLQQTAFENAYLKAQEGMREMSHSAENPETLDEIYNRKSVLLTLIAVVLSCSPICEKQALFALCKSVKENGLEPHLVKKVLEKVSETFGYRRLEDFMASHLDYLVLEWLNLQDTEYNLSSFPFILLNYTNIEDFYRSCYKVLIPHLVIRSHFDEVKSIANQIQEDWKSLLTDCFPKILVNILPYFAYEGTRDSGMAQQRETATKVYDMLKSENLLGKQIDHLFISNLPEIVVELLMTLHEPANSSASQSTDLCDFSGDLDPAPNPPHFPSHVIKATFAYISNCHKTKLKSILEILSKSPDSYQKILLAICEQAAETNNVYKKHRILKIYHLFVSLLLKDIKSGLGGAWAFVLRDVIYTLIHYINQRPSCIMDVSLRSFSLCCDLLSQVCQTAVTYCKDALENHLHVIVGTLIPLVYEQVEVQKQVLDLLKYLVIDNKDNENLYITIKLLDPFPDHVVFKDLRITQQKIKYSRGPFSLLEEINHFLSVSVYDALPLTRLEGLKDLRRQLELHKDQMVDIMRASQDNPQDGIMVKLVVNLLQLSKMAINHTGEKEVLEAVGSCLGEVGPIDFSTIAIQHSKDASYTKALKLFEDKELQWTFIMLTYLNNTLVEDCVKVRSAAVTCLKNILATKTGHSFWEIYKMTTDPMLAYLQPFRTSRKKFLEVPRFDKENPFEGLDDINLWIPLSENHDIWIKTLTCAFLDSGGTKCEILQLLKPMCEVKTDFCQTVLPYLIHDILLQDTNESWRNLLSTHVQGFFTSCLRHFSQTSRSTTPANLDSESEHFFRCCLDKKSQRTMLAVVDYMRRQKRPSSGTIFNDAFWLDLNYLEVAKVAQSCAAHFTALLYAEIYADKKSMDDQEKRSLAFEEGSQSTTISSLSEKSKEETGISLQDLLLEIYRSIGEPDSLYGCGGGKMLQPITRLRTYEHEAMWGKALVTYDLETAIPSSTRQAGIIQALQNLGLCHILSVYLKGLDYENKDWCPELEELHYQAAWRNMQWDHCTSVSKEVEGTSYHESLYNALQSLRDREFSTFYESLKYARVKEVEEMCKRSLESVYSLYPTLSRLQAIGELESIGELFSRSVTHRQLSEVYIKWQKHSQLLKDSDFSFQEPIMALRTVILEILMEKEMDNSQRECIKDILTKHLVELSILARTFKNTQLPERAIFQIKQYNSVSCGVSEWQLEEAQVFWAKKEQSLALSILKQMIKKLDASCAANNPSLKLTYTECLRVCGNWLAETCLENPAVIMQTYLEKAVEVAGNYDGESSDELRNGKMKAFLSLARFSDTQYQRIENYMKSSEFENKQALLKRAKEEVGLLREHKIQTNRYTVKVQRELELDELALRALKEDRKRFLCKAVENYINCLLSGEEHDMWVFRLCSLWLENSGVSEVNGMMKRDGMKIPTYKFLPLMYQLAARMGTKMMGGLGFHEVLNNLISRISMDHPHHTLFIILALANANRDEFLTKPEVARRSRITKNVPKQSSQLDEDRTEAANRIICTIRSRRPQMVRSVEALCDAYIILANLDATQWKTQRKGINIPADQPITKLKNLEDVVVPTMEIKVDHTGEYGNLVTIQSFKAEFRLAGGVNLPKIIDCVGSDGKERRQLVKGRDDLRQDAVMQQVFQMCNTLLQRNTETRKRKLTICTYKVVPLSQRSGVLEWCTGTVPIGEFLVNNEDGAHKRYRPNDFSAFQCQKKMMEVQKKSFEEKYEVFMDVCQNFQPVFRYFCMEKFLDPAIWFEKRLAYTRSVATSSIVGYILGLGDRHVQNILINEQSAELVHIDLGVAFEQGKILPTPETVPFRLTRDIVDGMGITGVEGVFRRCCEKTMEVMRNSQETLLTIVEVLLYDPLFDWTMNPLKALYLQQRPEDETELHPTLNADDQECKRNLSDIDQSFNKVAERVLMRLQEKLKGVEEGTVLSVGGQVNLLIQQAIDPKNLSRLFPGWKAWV

SMILES	IC50 (ATM; class symbol) [nM]	IC50 (PI3Kβ; class symbol) [nM]	IC50 ([1]; class symbol) [nM]	IC50 (DNA-PK; [3]) [nM]	IC50 ([2]; class symbol) [nM]	IC50 (ATM; read-out: ATM HTRF 10 μM ATP IC50, numeric value) [nM]	IC50 (PI3Kβ; numeric value) [nM]	IC50 ([1]; numeric value) [nM]	IC50 (DNA-PK; class symbol) [nM]	IC50 (DNA-PK; read-out: DNA-PK HotSpot 10 μM ATP IC50, numeric value) [nM]	IC50 ([2]; numeric value) [nM]
Cc1cc2ncnn2cc1Nc1ncc2c(n1)n([C@H]1C[C@@H]3CC[C@H]1C3)c(=O)n2C [Compound 45, 9-((1S,2S,4R)-bicyclo[2.2.1]heptan-2-yl)-7-methyl-2-((7-methyl-[1,2,4]triazolo[1,5-a]pyridin-6-yl)amino)-7,9-dihydro-8H-purin-8-one]	10 to 100	100 to 1000	≥ 1000	< 1	100 to 1000						
Cc1cc2ncccc2cc1Nc1ncc2c(n1)n([C@H]1C[C@@H]3CC[C@H]1C3)c(=O)n2C [Compound 44, 9-((1S,2S,4R)-bicyclo[2.2.1]heptan-2-yl)-7-methyl-2-((7-methylquinolin-6-yl)amino)-7,9-dihydro-8H-purin-8-one]	1 to 10	100 to 1000	100 to 1000	< 1	10 to 100						
Cc1cc2ncnn2cc1Nc1ncc2c(n1)n(C13CCC(O)(CC1)C3)c(=O)n2C [Compound 1, 9-(4-hydroxybicyclo[2.2.1]heptan-1-yl)-7-methyl-2-((7-methyl-[1,2,4]triazolo[1,5-a]pyridin-6-yl)amino)-7,9-dihydro-8H-purin-8-one]	10 to 100	100 to 1000	≥ 1000		100 to 1000	88	658	1830	< 1	0.07	128
